For five compounds, Activity results are on record in ChEMBL document CHEMBL2074412, “Cloning of the human kidney PAH transporter: narrow substrate specificity and regulation by protein kinase C” (Am J Physiol, 1999).

Common to all, as to assay type: functional, cell-based
Data set [1] addresses T1, Solute carrier family 22 member 6 (Homo sapiens, UniProt Q4U2R8).
T1 sequence (Q4U2R8 whole entry): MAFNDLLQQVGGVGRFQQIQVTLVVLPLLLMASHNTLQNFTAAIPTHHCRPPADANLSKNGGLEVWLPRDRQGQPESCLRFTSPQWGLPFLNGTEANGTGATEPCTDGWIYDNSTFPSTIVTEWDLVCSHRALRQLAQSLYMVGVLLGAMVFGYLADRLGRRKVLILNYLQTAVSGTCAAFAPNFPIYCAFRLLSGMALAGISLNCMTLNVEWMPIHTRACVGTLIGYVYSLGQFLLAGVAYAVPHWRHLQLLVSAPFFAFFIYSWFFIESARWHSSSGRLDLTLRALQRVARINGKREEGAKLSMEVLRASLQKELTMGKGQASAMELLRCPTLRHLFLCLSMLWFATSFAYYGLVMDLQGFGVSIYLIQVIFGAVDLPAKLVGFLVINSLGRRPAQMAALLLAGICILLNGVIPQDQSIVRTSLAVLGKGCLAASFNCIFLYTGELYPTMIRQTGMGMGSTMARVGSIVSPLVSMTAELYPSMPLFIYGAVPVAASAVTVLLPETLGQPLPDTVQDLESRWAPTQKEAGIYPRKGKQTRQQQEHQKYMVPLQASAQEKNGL
The experiment in a line: TP_TRANSPORTER: uptake in OAT1-expressing HeLa cells.

Data set [2] deals with T1, Solute carrier family 22 member 6. The experiment in a line: TP_TRANSPORTER: inhibition of PAH uptake (alpha,-KG: 200 uM) in OAT1-expressing HeLa cells.
Data set [3] shares this target. The experiment in a line: TP_TRANSPORTER: inhibition of PAH uptake (Anandamide: 100 uM) in OAT1-expressing HeLa cells.
The target is the same in data set [4]. The data set can be described thus: TP_TRANSPORTER: inhibition of PAH uptake (PAH: 0.4 uM, Phenylbutazone: 200 uM) in OAT1-expressing HeLa cells.
For data set [5] the target is unchanged. The data set can be described thus: TP_TRANSPORTER: inhibition of PAH uptake (Furosemide: 200 uM) in OAT1-expressing HeLa cells.
The target is the same in data set [6]. The data set can be described thus: TP_TRANSPORTER: inhibition of PAH uptake (Indomethacin: 200 uM) in OAT1-expressing HeLa cells.

Consider `O=C(O)CCC(=O)C(=O)O` [ALPHA-KETOGLUTARIC ACID], for which the Activity result in data set [1] was “substrate [+]”; in data set [2] it was “inhibitor [(at a rough estimate) 35 % of control]”. With `CCCCC/C=C\C/C=C\C/C=C\C/C=C\CCCC(=O)NCCO` [ANANDAMIDE], the Activity result in data set [3] was “is not an inhibitor [-]”.

As for `O=C1OC2(c3ccc(O)cc3Oc3cc(O)ccc32)c2ccccc21` [FLUORESCEIN], the Activity result in data set [4] was “inhibitor [(at a rough estimate) 20 % of control]”. For `NS(=O)(=O)c1cc(C(=O)O)c(NCc2ccco2)cc1Cl` [FUROSEMIDE], the Activity entry in data set [5] was “inhibitor [(at a rough estimate) 50 % of control]”. Turning to `COc1ccc2c(c1)c(CC(=O)O)c(C)n2C(=O)c1ccc(Cl)cc1` [INDOMETHACIN], the Activity result in data set [6] was “inhibitor [(at a rough estimate) 20 % of control]”.
